Results published in publication PMC7827406, “Structure–Activity Relationship (SAR) Study of Spautin-1 to Entail the Discovery of Novel NEK4 Inhibitors” (International Journal of Molecular Sciences, 2021).
Like-named read-outs stand apart in the source and are kept apart here.

Tests used:
Experiment in all cases: biochemical
Parameters in all cases: Eurofins KinaseProfiler full panel at Km ATP, residual kinase activity (%) relative to DMSO
IGF-1R(h), activated = molecular target: T1, IGF-1R(h), activated (Homo sapiens, UniProt P08069)
T1 construct: gene IGF1R
Summary of the method: (§1)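 Two 10 µM single-concentration screens were run: a competition-binding screen, in which DNA-tagged kinase bound to immobilized ligands was quantified by qPCR, and a radiometric activity panel at Km ATP. Each is expressed as residual kinase activity (%).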

Arg(m) = molecular target: T2, Arg(m) (Mus musculus, UniProt Q4JIM5)
T2 construct: gene Abl2
Summary of the method: as §1

MAPKAP-K2(h) = molecular target: T3, MAPKAP-K2(h) (Homo sapiens, UniProt P49137)
T3 construct: gene MAPKAPK2
Summary of the method: as §1

SAPK2a(h) = molecular target: T4, SAPK2a(h) (Homo sapiens, UniProt Q16539)
T4 construct: gene MAPK14
Summary of the method: as §1

Snk(h) = molecular target: T5, Snk(h) (Homo sapiens, UniProt Q9NYY3)
T5 construct: gene PLK2
Summary of the method: as §1

MAP4K5(h) = MAP4K5(h) (Homo sapiens, UniProt Q9Y4K4)
Summary of the method: as §1

TSSK3(h) = molecular target: T6, TSSK3(h) (Homo sapiens, UniProt Q96PN8)
T6 sequence (Q96PN8 1-268): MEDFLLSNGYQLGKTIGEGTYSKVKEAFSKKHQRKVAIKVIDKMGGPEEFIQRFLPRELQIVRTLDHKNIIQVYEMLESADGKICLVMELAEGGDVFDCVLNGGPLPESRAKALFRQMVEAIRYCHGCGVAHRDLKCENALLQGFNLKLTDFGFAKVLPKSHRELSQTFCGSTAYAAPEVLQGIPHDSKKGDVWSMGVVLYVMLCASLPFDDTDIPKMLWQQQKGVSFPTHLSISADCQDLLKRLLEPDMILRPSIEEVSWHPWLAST
Summary of the method: as §1

EphA1(h) = molecular target: T7, EphA1(h) (Homo sapiens, UniProt P21709)
T7 sequence (P21709 1-976): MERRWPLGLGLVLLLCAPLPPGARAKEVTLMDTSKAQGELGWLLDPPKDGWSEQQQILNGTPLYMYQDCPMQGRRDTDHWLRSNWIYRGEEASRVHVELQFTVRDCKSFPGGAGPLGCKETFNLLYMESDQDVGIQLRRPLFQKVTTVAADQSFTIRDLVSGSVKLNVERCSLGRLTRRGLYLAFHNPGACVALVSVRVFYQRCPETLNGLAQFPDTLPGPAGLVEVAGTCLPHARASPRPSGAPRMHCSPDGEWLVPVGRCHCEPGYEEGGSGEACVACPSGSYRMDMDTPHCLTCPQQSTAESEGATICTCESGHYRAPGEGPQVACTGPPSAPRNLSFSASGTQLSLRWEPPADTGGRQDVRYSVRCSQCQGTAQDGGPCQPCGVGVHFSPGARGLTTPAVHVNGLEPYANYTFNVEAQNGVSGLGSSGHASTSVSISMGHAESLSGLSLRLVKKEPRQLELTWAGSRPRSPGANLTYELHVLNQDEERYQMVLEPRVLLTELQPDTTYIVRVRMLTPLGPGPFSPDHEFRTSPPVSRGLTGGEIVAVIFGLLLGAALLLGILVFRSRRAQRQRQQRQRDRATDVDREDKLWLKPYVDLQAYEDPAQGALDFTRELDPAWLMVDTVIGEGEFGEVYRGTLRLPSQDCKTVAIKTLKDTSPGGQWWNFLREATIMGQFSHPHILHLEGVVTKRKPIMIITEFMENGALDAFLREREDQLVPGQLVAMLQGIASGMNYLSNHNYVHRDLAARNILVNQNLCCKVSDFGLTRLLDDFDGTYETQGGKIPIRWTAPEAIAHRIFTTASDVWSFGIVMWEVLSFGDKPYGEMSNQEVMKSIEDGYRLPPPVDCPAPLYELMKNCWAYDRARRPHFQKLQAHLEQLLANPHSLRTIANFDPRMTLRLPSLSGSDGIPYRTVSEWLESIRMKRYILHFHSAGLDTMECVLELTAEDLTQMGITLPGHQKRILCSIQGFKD
Summary of the method: as §1

TYK2(h) = TYK2(h) (Homo sapiens, UniProt P29597)
Summary of the method: as §1

[1] = molecular target: T8, PI3 Kinase (p110a(H1047R)/p85a)(m) (Mus musculus, UniProt P42337, H1047R)
T8 construct: gene Pik3ca
Summary of the method: as §1

[2] = read-out: Residual activity (%) 5ay
[3] = read-out: Residual activity (%) Spautin-1 5aa
[4] = read-out: Residual activity (%) 5at
[5] = read-out: Residual activity (%) 5as

T2 sequence (Q4JIM5 whole entry): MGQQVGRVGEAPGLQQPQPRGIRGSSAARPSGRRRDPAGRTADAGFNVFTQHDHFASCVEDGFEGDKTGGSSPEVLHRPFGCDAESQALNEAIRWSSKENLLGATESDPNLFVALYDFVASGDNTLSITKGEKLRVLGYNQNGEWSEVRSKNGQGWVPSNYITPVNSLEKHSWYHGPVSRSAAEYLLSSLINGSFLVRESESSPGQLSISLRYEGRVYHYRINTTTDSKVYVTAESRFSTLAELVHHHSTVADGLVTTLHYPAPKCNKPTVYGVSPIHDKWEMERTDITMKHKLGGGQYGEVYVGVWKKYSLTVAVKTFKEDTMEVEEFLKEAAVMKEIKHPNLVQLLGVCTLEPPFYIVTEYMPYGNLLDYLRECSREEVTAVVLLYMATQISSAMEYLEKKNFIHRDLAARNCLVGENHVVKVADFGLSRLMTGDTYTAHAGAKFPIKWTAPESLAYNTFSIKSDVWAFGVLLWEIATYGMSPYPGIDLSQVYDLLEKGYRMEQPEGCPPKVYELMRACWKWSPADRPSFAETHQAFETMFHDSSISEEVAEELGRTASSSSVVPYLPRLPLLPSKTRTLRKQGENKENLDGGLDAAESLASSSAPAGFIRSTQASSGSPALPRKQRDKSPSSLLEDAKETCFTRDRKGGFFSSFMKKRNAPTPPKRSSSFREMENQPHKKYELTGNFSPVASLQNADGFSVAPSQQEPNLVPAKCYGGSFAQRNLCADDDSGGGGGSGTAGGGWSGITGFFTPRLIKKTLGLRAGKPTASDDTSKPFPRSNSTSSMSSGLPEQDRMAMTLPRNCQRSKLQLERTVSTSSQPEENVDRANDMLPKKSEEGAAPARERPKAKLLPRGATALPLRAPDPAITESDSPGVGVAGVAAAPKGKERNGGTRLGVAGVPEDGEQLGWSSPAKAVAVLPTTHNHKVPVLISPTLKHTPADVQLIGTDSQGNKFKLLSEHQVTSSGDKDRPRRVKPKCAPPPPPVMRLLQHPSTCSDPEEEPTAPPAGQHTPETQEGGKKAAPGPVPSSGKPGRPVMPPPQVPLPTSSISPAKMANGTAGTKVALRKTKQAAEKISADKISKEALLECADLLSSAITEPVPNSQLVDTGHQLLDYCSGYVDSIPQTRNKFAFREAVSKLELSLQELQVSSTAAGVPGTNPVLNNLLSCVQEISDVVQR
Sequence of MAP4K5(h) (Q9Y4K4 whole entry): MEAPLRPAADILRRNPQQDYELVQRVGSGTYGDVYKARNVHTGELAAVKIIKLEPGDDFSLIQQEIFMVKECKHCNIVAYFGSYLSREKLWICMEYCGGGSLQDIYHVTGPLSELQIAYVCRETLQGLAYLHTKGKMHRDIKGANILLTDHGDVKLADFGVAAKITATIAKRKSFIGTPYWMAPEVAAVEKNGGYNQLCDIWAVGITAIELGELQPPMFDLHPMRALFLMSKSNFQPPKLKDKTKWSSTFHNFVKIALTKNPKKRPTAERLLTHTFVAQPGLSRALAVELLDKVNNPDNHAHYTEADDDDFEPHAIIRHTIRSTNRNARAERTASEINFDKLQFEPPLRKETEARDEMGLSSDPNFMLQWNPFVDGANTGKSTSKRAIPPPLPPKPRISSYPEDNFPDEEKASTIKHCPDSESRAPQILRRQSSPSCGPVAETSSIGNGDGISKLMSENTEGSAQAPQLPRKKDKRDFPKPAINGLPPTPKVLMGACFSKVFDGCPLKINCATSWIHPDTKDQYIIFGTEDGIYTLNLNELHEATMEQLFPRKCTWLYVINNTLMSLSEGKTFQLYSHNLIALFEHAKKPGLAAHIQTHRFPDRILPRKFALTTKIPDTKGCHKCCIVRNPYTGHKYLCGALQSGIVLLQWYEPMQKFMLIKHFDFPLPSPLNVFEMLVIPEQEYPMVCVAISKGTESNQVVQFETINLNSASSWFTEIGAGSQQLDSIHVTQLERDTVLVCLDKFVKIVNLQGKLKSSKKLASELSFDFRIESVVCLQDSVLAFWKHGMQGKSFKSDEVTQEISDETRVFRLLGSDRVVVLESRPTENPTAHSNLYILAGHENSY
T1 sequence (P08069 whole entry): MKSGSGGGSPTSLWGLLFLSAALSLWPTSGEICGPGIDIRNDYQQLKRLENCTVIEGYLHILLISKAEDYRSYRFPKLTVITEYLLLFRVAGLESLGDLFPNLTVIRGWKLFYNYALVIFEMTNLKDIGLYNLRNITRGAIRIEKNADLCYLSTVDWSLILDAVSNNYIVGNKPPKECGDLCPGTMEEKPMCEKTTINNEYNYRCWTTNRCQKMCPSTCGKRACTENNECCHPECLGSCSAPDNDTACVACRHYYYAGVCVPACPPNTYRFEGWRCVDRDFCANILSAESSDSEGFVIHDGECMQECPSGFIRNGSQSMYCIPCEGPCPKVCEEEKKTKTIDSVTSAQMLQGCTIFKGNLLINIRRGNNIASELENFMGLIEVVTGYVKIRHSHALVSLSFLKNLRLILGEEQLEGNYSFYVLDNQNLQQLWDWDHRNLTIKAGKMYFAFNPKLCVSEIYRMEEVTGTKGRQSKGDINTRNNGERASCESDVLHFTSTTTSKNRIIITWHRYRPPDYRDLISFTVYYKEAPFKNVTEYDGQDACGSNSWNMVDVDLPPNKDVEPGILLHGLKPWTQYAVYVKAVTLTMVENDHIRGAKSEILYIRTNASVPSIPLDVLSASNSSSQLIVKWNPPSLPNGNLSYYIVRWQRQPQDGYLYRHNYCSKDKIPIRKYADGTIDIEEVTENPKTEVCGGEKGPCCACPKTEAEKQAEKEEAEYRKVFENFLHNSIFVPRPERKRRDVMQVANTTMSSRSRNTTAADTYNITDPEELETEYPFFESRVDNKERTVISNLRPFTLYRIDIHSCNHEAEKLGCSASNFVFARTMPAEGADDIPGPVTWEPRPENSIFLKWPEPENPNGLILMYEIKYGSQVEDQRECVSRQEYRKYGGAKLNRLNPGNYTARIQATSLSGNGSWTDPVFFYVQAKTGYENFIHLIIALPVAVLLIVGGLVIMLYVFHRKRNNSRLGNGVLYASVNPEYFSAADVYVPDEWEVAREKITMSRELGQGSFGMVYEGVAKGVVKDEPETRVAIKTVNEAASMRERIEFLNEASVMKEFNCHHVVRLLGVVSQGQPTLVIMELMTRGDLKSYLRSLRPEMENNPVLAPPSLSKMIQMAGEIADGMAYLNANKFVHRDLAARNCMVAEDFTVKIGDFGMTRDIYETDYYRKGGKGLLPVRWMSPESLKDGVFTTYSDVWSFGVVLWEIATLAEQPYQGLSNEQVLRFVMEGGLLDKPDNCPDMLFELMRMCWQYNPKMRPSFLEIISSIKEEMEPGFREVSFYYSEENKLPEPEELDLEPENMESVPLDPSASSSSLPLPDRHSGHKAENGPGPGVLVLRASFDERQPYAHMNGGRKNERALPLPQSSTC
T3 sequence (P49137 whole entry): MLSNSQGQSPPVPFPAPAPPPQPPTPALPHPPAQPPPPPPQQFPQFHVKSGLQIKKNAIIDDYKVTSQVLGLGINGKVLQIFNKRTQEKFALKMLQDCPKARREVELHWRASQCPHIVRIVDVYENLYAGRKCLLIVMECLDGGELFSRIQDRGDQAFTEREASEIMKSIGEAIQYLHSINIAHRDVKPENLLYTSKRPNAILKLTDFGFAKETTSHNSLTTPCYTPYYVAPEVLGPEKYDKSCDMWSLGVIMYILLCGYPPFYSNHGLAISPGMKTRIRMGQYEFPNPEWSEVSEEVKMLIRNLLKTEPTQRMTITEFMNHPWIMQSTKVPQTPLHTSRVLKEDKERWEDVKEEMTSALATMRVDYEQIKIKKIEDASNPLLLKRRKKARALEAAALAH
T4 sequence (Q16539 whole entry): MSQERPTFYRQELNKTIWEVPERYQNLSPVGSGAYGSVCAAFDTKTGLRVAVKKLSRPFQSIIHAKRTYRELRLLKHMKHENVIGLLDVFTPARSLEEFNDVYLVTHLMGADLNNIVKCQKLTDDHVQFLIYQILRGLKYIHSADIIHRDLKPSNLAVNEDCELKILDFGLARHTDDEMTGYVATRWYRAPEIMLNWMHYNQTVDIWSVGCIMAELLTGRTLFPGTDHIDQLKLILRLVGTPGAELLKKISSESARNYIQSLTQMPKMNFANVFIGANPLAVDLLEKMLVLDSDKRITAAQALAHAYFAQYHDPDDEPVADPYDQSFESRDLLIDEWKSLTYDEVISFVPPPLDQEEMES
T5 sequence (Q9NYY3 whole entry): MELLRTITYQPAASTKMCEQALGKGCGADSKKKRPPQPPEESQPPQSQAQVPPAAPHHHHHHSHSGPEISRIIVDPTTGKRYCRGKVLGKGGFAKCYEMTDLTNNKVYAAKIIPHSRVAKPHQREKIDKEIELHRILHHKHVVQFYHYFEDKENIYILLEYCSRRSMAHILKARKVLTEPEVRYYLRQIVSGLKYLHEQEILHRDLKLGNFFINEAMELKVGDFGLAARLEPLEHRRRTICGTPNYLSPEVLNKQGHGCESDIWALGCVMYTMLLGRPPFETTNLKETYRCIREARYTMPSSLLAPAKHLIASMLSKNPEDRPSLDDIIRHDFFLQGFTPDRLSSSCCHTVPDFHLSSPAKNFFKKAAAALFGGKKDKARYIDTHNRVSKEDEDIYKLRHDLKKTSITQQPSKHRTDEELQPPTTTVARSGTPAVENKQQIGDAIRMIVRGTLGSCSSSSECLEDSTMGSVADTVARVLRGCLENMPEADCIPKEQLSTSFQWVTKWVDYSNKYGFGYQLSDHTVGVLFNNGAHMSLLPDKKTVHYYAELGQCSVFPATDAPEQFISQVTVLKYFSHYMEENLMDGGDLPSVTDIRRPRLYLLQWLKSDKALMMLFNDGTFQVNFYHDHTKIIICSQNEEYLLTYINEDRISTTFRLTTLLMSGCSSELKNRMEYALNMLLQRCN

With `COc1ccc2ncnc(Nc3cccc(F)c3)c2c1` [5ay, N-(3-Fluorophenyl)-6-Methoxy-4-Quinazolinamine] the remaining activity at 10 µM (IGF-1R(h), activated; [2]) was 73%, the remaining activity at 10 µM (Arg(m); [2]) was 83% and the remaining activity at 10 µM (MAPKAP-K2(h); [2]) was 80%. It also gave a remaining activity at 10 µM (SAPK2a(h); [2]) of 99%, a remaining activity at 10 µM (Snk(h); [2]) of 80% and a remaining activity at 10 µM (MAP4K5(h); [2]) of 80%. It also gave a remaining activity at 10 µM (TSSK3(h); [2]) of 104%, a remaining activity at 10 µM (EphA1(h); [2]) of 61% and a remaining activity at 10 µM (TYK2(h); [2]) of 75%. It also gave a remaining activity at 10 µM [1, 2] of 93%.

`Fc1ccc(CNc2ncnc3ccc(F)cc23)cc1` [5aa, 6-Fluoro-N-(4-fluorobenzyl)-4-Quinazolinamine] gave a remaining activity at 10 µM (IGF-1R(h), activated; [3]) of 78%, a remaining activity at 10 µM (Arg(m); [3]) of 91% and a remaining activity at 10 µM (MAPKAP-K2(h); [3]) of 79%. It also gave a remaining activity at 10 µM (SAPK2a(h); [3]) of 95%, a remaining activity at 10 µM (Snk(h); [3]) of 98% and a remaining activity at 10 µM (MAP4K5(h); [3]) of 92%. The remaining activity at 10 µM (TSSK3(h); [3]) was 111%, the remaining activity at 10 µM (EphA1(h); [3]) was 93% and the remaining activity at 10 µM (TYK2(h); [3]) was 109%. For the same compound, the remaining activity at 10 µM [1, 3] was 96%.

Compound `Fc1ccc2ncnc(NCCc3ccc(Cl)cc3)c2c1` [5at, N-[2-(4-Chlorophenyl)Ethyl]-6-Fluoro-4-Quinazolinamine] has a remaining activity at 10 µM (IGF-1R(h), activated; [4]) of 76%, a remaining activity at 10 µM (Arg(m); [4]) of 98% and a remaining activity at 10 µM (MAPKAP-K2(h); [4]) of 97%. It also gave a remaining activity at 10 µM (SAPK2a(h); [4]) of 88%, a remaining activity at 10 µM (Snk(h); [4]) of 100% and a remaining activity at 10 µM (MAP4K5(h); [4]) of 97%. It also gave a remaining activity at 10 µM (TSSK3(h); [4]) of 95%, a remaining activity at 10 µM (EphA1(h); [4]) of 74% and a remaining activity at 10 µM (TYK2(h); [4]) of 84%. For the same compound, the remaining activity at 10 µM [1, 4] was 94%.

In the case of `Fc1ccc(CCNc2ncnc3ccc(F)cc23)cc1` [5as, 6-Fluoro-N-[2-(4-Fluorophenyl)Ethyl]-4-Quinazolinamine], the remaining activity at 10 µM (IGF-1R(h), activated; [5]) is reported as 72%, the remaining activity at 10 µM (Arg(m); [5]) is reported as 105% and the remaining activity at 10 µM (MAPKAP-K2(h); [5]) is reported as 85%. It also gave a remaining activity at 10 µM (SAPK2a(h); [5]) of 98%, a remaining activity at 10 µM (Snk(h); [5]) of 89% and a remaining activity at 10 µM (MAP4K5(h); [5]) of 89%. It also gave a remaining activity at 10 µM (TSSK3(h); [5]) of 97%, a remaining activity at 10 µM (EphA1(h); [5]) of 66% and a remaining activity at 10 µM (TYK2(h); [5]) of 86%. It also gave a remaining activity at 10 µM [1, 5] of 95%.
